The target in data set [1] is T1, FXR-LBD (Homo sapiens, UniProt Q96RI1).
T1 construct: The glutathione S-transferase (GST)-tagged FXR-LBD protein; purchased Life Technologies
T1 sequence (Q96RI1 262-486 limits assumed): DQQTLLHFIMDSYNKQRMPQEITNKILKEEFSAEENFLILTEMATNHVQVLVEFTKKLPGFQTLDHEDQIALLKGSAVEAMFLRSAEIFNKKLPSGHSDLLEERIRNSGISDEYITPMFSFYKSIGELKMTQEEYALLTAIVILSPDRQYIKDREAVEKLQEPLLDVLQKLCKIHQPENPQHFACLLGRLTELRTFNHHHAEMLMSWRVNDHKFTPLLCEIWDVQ
Kind of data set: FXR TR-FRET coactivator recruitment assay, agonist mode. The class given is biochemical. The following applies: Table 1; coactivator SRC2-2 recruitment. (In general: TR-FRET usually uses a lanthanide donor and a delayed reading to cut background.)

In data set [2] the target is T2, human FXR (Homo sapiens, UniProt Q96RI1). Nature of the data set: FXR-bla reporter gene assay, agonist mode (qHTS). In general terms: A reporter such as luciferase makes a cellular process visible.
T2 sequence (Q96RI1 with tags, fused parts or gaps limits assumed): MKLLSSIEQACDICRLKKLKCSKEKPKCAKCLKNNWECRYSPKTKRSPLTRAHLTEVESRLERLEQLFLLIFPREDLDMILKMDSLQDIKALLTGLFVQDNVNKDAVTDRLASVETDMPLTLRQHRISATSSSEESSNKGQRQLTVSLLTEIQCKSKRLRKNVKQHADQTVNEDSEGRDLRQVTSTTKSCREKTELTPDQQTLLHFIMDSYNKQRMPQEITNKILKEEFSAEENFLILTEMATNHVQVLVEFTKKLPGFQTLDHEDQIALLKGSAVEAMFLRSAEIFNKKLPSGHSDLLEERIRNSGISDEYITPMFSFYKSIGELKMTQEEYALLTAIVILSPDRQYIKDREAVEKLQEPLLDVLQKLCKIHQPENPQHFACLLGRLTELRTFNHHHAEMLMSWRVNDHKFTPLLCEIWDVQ
Data set [3] concerns FXR-UAS-bla HEK293T cells. Nature of the data set: Cell viability assay (CellTiter Glo) in the same well as FXR-bla. (In general: In ATP-based viability assays light output follows the ATP content of the culture.)
Data set [4] deals with estrogen receptor alpha (ERα) (Homo sapiens, UniProt P03372). Nature of the data set: ERα-bla reporter gene assay (agonist and antagonist modes).
estrogen receptor alpha (ERα), sequence (P03372 with tags, fused parts or gaps limits assumed): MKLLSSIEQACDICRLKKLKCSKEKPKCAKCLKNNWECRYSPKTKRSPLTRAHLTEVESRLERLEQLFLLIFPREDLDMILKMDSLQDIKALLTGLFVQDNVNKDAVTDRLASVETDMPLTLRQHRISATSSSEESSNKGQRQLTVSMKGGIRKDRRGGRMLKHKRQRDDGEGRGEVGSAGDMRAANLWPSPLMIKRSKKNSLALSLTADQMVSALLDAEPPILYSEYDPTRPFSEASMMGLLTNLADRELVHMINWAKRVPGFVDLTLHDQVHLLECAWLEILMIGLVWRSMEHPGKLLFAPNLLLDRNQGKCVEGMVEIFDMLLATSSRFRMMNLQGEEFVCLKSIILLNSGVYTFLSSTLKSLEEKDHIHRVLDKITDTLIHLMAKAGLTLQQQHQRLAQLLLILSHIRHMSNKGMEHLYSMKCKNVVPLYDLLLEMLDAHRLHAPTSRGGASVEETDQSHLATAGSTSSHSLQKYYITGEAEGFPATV
In the next data set the target is vitamin D receptor (VDR) (Homo sapiens, UniProt P11473). Nature of the data set: VDR-bla reporter gene assay (agonist and antagonist modes).
vitamin D receptor (VDR), sequence (P11473 with tags, fused parts or gaps limits assumed): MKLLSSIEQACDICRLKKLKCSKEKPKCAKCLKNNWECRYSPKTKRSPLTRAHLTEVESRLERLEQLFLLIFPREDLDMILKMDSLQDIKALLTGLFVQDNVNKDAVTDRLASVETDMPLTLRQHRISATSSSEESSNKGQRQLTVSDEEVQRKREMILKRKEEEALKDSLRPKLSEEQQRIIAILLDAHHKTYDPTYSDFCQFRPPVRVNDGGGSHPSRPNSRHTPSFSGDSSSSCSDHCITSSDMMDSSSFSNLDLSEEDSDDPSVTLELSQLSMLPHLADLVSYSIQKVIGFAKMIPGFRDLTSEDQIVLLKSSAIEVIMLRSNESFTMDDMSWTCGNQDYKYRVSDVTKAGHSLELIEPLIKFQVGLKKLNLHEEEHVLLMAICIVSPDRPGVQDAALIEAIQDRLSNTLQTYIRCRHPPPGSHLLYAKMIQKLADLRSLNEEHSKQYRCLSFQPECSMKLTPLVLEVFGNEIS
Another data set deals with androgen receptor (AR) (Homo sapiens, UniProt P10275). Nature of the data set: AR-bla reporter gene assay (agonist and antagonist modes).
androgen receptor (AR), sequence (P10275 with tags, fused parts or gaps limits assumed): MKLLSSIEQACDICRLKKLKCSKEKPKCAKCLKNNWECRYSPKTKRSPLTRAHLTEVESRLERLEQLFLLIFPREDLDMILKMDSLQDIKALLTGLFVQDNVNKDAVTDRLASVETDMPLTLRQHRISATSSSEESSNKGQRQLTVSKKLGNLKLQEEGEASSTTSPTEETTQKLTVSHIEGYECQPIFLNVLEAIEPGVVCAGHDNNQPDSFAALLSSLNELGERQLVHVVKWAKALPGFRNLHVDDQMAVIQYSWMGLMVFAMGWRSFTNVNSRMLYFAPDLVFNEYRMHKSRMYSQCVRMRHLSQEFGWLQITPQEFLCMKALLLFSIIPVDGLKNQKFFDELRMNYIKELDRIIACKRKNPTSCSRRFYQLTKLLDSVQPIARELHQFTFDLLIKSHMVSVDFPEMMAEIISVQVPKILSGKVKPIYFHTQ
Data set [5] addresses T1, FXR-LBD. Kind of data set: FXR TR-FRET coactivator recruitment assay, antagonist mode (50 μM CDCA). The following applies: Table 1; in the presence of 50 μM CDCA. The class given is biochemical.
Data set [6] addresses peroxisome proliferator-activated receptor gamma (PPARγ) (Homo sapiens, UniProt P37231). Kind of data set: PPARγ-bla reporter gene assay (agonist and antagonist modes).
Data set [7] deals with T2, human FXR. Nature of the data set: FXR-bla reporter gene assay, antagonist mode (CDCA-induced transactivation).
Data set [8] concerns the target peroxisome proliferator-activated receptor delta (PPARδ) (Homo sapiens, UniProt Q03181). Nature of the data set: PPARδ-bla reporter gene assay (agonist and antagonist modes).
Data set [9] is described as follows: Cell viability assay (CellTiter Glo) in the same well as FXR-bla. The following applies: human, FXR-UAS-bla HEK293T cells.

Here are results for two molecules from PMC4894417, “Quantitative High-Throughput Profiling of Environmental Chemicals and Drugs that Modulate Farnesoid X Receptor” (Scientific Reports, 2014).

The structures appear in SMILES notation.

peroxisome proliferator-activated receptor delta (PPARδ), sequence (Q03181 with tags, fused parts or gaps limits assumed): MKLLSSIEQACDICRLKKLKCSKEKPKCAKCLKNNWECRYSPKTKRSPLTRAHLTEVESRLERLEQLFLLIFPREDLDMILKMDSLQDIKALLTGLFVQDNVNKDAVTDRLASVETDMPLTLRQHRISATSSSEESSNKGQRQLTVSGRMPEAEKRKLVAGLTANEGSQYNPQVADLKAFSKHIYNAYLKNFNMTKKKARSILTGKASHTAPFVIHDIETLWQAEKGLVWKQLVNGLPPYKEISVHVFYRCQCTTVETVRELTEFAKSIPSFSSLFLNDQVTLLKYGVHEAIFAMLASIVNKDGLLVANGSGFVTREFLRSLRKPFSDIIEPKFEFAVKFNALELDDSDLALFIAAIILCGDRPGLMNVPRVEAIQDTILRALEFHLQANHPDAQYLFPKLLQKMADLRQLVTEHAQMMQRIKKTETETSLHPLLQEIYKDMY
peroxisome proliferator-activated receptor gamma (PPARγ), sequence (P37231 with tags, fused parts or gaps limits assumed): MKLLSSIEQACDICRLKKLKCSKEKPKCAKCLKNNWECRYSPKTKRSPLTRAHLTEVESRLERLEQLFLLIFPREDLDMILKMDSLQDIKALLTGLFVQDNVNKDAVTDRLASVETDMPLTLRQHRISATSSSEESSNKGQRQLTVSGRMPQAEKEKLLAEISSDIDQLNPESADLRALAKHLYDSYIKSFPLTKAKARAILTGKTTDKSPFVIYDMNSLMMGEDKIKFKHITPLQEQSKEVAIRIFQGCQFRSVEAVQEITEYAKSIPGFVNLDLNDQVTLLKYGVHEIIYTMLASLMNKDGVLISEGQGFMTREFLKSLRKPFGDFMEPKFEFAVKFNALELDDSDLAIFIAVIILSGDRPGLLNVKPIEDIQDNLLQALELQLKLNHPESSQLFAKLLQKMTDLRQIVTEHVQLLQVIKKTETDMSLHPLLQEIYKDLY

Usually EC50 stands for the concentration giving half of the maximal effect. A lower EC50 goes with a more potent agent. Take `CC(=O)[C@]1(O)Cc2c(O)c3c(c(O)c2[C@@H](O[C@H]2C[C@H](N)[C@H](O)[C@H](C)O2)C1)C(=O)c1ccccc1C3=O` [Idarubicin]: at FXR-LBD [1], the “FXR TR-FRET, agonist EC50” value is given as “Inactive”. Further, the EC50 at human FXR [2] was 1.37 ± 0.38 µM. Also, the “FXR-bla, agonist Efficacy” value on human FXR [2] (Table 1, activation as percent of positive control (CDCA 100%), mean ± SD of 3) is 42 ± 16%. In addition, the “FXR agonist EC50” value on human FXR [2] (Table S3, FXR-active drugs) is given as “Inactive”. The “Cell viability IC50” value in [3] (Table 1, mean ± SD of 3 experiments) is recorded as “Inactive”. The “ERα activity” value in data set [4] was “mixed agonist/antagonist response”. Moreover, at vitamin D receptor (VDR), the “VDR activity” value is listed as “antagonist response”. The “AR activity” value at androgen receptor (AR) is on record as “mixed agonist/antagonist response”. Moreover, the “FXR TR-FRET, antagonist Efficacy” value on FXR-LBD [5] is reported as 162 ± 41%. For the same molecule, the “PPARγ activity” value in data set [6] is “antagonist response”. Besides, the “FXR-bla, antagonist Efficacy” value on human FXR [7] (Table 1, inhibition as percent of positive control (guggulsterone), 50 μM CDCA) is given as 107 ± 3%. Also, the “FXR antagonist Efficacy” value at human FXR [7] (Table S3, 50 µM CDCA) worked out at 105 ± 11%. Also, in [8], the “PPARδ activity” value is on record as “antagonist response”.

The IC50 is the concentration that inhibits the measured activity by half. The low end stands for inhibition by little substance, the high end for a need for much substance. At human FXR [2], `CCOC(=O)C1=C(C)NC(C)=C(C(=O)OCC)C1c1ccccc1/C=C/C(=O)OC(C)(C)C` [Lacidipine] registered an EC50 of 23.5 ± 10.1 µM. The “FXR agonist activity” value on human FXR [2] (FXR-bla assay) is “activated”. Moreover, on human FXR [2] (Table S1, primary screening, CDCA 100%), the “FXR agonist mode Efficacy” value is 70 ± 41%. Moreover, the “Cytotoxicity Efficacy” value in data set [3] (Table S1, primary screening) worked out at 56 ± 39%. For the same molecule, half-maximal inhibition in data set [9] (IC50 at 16 h) required 54.5 ± 39.5 µM. For the same molecule, the “ERα activity” value in [4] is recorded as “activated”. The “AR activity” value at androgen receptor (AR) was “activated”. In addition, the midpoint of inhibition at human FXR [7], the IC50, lay at 32.3 ± 2.1 µM. At human FXR [7] (Table S1, primary screening, 50 µM CDCA), the “FXR antagonist mode Efficacy” value came to 55 ± 20%. Besides, the “PPARδ activity” value in data set [8] is given as “activated”.
